Patent US20090099207A1, “Cyclic sulfones useful as BACE inhibitors” (priority 2006, published 2009)

Experiments:
[1] = Test 4: Inhibition of cellular release of amyloid peptide 1-40; format: cell-based, Chinese hamster; conditions: Cricetulus griseus; CHO cells transfected with APP gene; 24 hours with test compound; amyloid peptide 1-40 in supernatant by sandwich ELISA
Excerpt: Test 4: Inhibition of Cellular Release of Amyloid Peptide 1-40

melting point [°C]	IC50 [1] [µM]	Compound
136 to 139		CC(C)c1cccc(CN[C@H]2CS(=O)(=O)C[C@@H](Cc3ccc(Nc4ccncn4)cc3)[C@@H]2O)c1 [Example 44, (3R,4S,5S)-3-(3-Isopropyl-benzylamino)-1,1-dioxo-5-[4-(pyrimidin-4-ylamino)-benzyl]-hexahydro-1lambda*6*-thiopyran-4-ol]
239 to 242		CC(C)c1cccc(CN[C@H]2CS(=O)(=O)C[C@@H](Cc3ccccc3)[C@@H]2O)c1.Cl (hydrate or solvate)
	4.7	CO[C@@H](C)COCc1cccc(C[C@@H]2CS(=O)(=O)C[C@H](NCc3cccc(C(C)C)c3)[C@H]2O)c1 [Example 26, (3R,4S,5S)-3-(3-Isopropyl-benzylamino)-5-[3-((S)-2-methoxy-propoxy-methyl)-benzyl]-1,1-dioxo-hexahydro-1lambda*6*-thiopyran-4-ol]
173 to 175		COc1ccc(C[C@@H]2CS(=O)(=O)C[C@H](NCc3cccc(C(C)C)c3)[C@H]2O)cc1Br.Cl
